Here are results for 26 compounds from patent publication EP1272854B1, “METHOD FOR DETECTING A HORMONE DISRUPTING ACTIVITY OF ENVIRONMENTAL POLLUTANTS” (Meulenberg, Petronella Mariette Maria, priority 2000, dated 2001).

For assay [1], the system named is SHBG (Sex Hormone Binding Globulin) from serum of pregnant volunteers. Kind of assay: SHBG assay: competitive displacement of tritiated oestradiol from antibody-captured SHBG on microtiter plate. On the set-up: species or system human. The conditions noted are these: for displacement of oestradiol / affinity to SHBG (in words): discussion of the SHBG assay results; for Activity (score for the displacement of tritiated oestradiol): displacement of 3H-oestradiol from SHBG, related to testosterone standard curve. From the text:
Sub figure 1a: HPAA = Hypothalamus-Pituitary-Adrenal-Axis; CRH = Corticotrophin Releasing Hormone; ACTH = Adrenocorticotrophic Hormone; Adrenal = adrenal gland. Sub figure 1b: HPTeA = Hypothalamus-Pituitary-Testis-Axis; LHRH = Luteinizing Hormone Releasing Hormone; LH = Luteinizing Hormone. […] The values are the averages of 11 measurements. […] Plotted out is the bound fraction as a percentage of the total quantity of added ^3H-E2 against the concentration of the test compound.
The SHBG assay was developed for detecting a possible oestrogenic activity of xenobiotic substances. As main component use was made of SHBG from serum of pregnant volunteers in the third trimester of pregnancy. Additionally use was made of commercially available polyclonal anti-SHBG antibody (DAKO) to isolate SHBG from serum on a microtiter plate. […] As standard testosterone (Sigma-Aldrich B.V., Zwijndrecht, the Netherlands) was used in a concentration series.
All compounds to be analyzed are related to the testosterone standard curve. For the analysis of an oestrogenic effect various compounds were tested in the SHBG assay, including endogenous steroids, pharmaceutical substances, pesticides and industrial waste products (alkyl phenols). […]
(In general: Loss of bound radioactivity is the signal in a displacement assay; it reports binding, not function.)

Another assay has as its system SHBG (post partum serum). The conditions noted are these: competition with 3H-5-alpha-DHT; cited from earlier work.
For a further assay, the system named is SHBG. The conditions noted are these: cited from earlier work.

For `C#CC1(O)CC[C@H]2[C@@H]3CCC4=CC(=O)CC[C@@H]4[C@H]3CC[C@@]21CC` (mixture of isomers) [Norgestrel, reference compound], in assay [1], the “displacement of oestradiol / affinity to SHBG (in words)” value (shortened to “displacement of oestradiol / affinity”) is reported as “high affinity” and the “Activity (score for the displacement of tritiated oestradiol)” value (“Activity” for short) is “+ + (strong displacement)”.

For the compound `O=C(O)COc1ccc(Cl)cc1Cl` [2.4-D], the “Activity” value in assay [1] was “+ (moderate displacement)”.

Take `C[C@H]1C[C@@H]2[C@H]([C@@H](O)C[C@@]3(C)[C@H]2CC[C@]3(O)C(=O)CO)[C@@]2(C)C=CC(=O)C=C12` [6-alpha-methylprednisolone, reference compound]: the “Activity” value in assay [1] was “+ (moderate displacement)”.

As for `CNC(=O)O/N=C/C(C)(C)SC` [Aldicarb], in assay [1], the “displacement of oestradiol / affinity” value is listed as “ambiguous result” and the “Activity” value is reported as “+/-”.

Regarding `C[C@]12CC[C@@H](O)C[C@@H]1CC[C@@H]1[C@@H]2CC[C@]2(C)C(=O)CC[C@@H]12` [Andosterone, reference compound], the “Activity” value in assay [1] is given as “+ (moderate displacement)”.

Take `CCNc1nc(Cl)nc(NC(C)C)n1` [Atrazine]: in assay [1], the “displacement of oestradiol / affinity” value was “no activity at all” and the “Activity” value is recorded as “- (no displacement)”. Further, in the assay with SHBG (post partum serum), the “binding to SHBG” value is “not found”.

As for `CC(C)(c1ccc(O)cc1)c1ccc(O)cc1` [Bisphenol-A], in assay [1], the “displacement of oestradiol / affinity” value is “remarkably strong effect” and the “Activity” value is given as “+ + (strong displacement)”.

Take `CC/C(=C(/CC)c1ccc(O)cc1)c1ccc(O)cc1` [DES, reference compound]: in assay [1], the “displacement of oestradiol / affinity” value is “high affinity” and the “Activity” value is “+ + (strong displacement)”.

Consider `C[C@]12CC[C@H](O)CC1=CC[C@@H]1[C@@H]2CC[C@]2(C)C(=O)CC[C@@H]12` [Dehydro-iso-andosterone, reference compound], for which the “Activity” value in assay [1] is recorded as “+ (moderate displacement)”.

As to `CN(C)S(=O)(=O)N(SC(F)(Cl)Cl)c1ccccc1` [Dichlofluanide], in assay [1], the “Activity” value is recorded as “+ (moderate displacement)”.

With `O=C(O)CNCP(=O)(O)O` [Glyphosate], in assay [1], the “displacement of oestradiol / affinity” value was “ambiguous result” and the “Activity” value is on record as “+/-”.

On to `CCCCC(O)(Cn1cncn1)c1ccc(Cl)cc1Cl` (centres unmarked) [Hexaconazole], for which, in assay [1], the “displacement of oestradiol / affinity” value is given as “ambiguous result” and the “Activity” value was “+/-”.

Turning to `CCOC(=O)CC(SP(=S)(OC)OC)C(=O)OCC` (centres unmarked) [Malathion], in assay [1], the “Activity” value is on record as “+ (moderate displacement)”.

For `C[C@]12CC[C@@H]3c4ccc(O)cc4CC[C@H]3[C@@H]1CC[C@@H]2O` [Oestradiol], the “affinity for SHBG” value in the assay with SHBG (association constant, see Dunn et al. 1981) was 7e-10 M⁻¹.

Consider `CC1(C)C(C=C(Cl)Cl)C1C(=O)OCc1cccc(Oc2ccccc2)c1` (centres unmarked) [Permethrin], for which, in assay [1], the “displacement of oestradiol / affinity” value was “clear displacement” and the “Activity” value is reported as “+ + (strong displacement)”.

`CCNc1nc(Cl)nc(NCC)n1` [Simazine]: in assay [1], the “displacement of oestradiol / affinity” value is on record as “ambiguous result” and the “Activity” value was “+ /-”.

In the case of `CC(C)(C)C(O)(CCc1ccc(Cl)cc1)Cn1cncn1` (centres unmarked) [Tebuconazole], in assay [1], the “displacement of oestradiol / affinity” value is “ambiguous result” and the “Activity” value is given as “+/-”.

Turning to `C[C@]12CC[C@H]3[C@@H](CCC4=CC(=O)CC[C@@]43C)[C@@H]1CC[C@@H]2O` [Testosterone], at SHBG (see Dunn et al. 1981, read-out: affinity for SHBG (converted)), the Kd is 62.5 nM. In the assay with SHBG (testosterone versus oestradiol), the “affinity to SHBG relative to oestradiol” value is given as “approximately 3 times”. Besides, the “Activity” value in assay [1] is recorded as “+ + (strong displacement)”.

With `C=CC1(C)OC(=O)N(c2cc(Cl)cc(Cl)c2)C1=O` (centres unmarked) [Vinclozolin], the “Activity” value in assay [1] is “+ (moderate displacement)”.

In the case of `ClC1=C(Cl)[C@]2(Cl)[C@@H]3[C@@H]4C[C@@H]([C@H]5O[C@@H]45)[C@@H]3[C@@]1(Cl)C2(Cl)Cl` [dieldrin], the “binding to SHBG” value with SHBG (post partum serum) is “not found”.

For `COc1ccc(C(c2ccc(OC)cc2)C(Cl)(Cl)Cl)cc1` [methoxychlor], the “binding to SHBG” value in the assay with SHBG (post partum serum) is “not found”.

On to `Clc1ccc(C(c2ccccc2Cl)C(Cl)(Cl)Cl)cc1` (centres unmarked) [o,p'-DDT], for which the “binding to SHBG” value in the assay on SHBG (post partum serum) was “showed binding”.

Regarding `ClC(Cl)=C(c1ccc(Cl)cc1)c1ccc(Cl)cc1` [p,p'-DDE], the “binding to SHBG” value with SHBG (post partum serum) was “not found”.

For the compound `Clc1ccc(C(c2ccc(Cl)cc2)C(Cl)(Cl)Cl)cc1` [p,p'-DDT], the “binding to SHBG” value with SHBG (post partum serum) is “not found”.

As to `Oc1c(Cl)c(Cl)c(Cl)c(Cl)c1Cl` [pentachlorophenol], the “binding to SHBG” value in the assay with SHBG (post partum serum) was “showed binding”.

In the case of Nonylphenol, in assay [1], the “displacement of oestradiol / affinity” value was “remarkably strong effect” and the “Activity” value is given as “+ + (strong displacement)”. For the same compound, in the assay with SHBG (post partum serum), the “binding to SHBG” value was “showed binding”.
